The values that follow come from patent publication US20080227797A1, “Pyridopyrimidine Derivatives as Pde4 Inhibitors for the Treatment of Inflammatory and Immune Diseases” (ASTRAZENECA AB, priority 2005, published 2008).

SMILES strings stand for the structures.

recombinant Human Phosphodiesterase B2 (PDE4B2), sequence (Q07343 1-564 isoform Q07343-2): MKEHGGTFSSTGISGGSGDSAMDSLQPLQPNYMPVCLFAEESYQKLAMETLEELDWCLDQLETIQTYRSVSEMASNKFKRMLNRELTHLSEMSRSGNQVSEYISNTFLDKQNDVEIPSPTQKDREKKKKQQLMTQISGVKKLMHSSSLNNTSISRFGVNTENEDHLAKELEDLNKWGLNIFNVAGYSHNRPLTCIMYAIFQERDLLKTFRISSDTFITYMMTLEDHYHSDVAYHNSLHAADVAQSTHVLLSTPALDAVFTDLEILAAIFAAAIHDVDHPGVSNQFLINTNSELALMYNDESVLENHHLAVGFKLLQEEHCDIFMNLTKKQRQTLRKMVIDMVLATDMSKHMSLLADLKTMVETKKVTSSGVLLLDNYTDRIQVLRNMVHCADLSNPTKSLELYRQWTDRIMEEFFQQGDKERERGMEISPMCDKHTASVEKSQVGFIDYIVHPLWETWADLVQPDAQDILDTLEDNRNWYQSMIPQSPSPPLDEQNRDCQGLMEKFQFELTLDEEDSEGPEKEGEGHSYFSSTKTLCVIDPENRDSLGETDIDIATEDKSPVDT

This assay concerns the target recombinant Human Phosphodiesterase B2 (PDE4B2) (Homo sapiens, UniProt Q07343). Put plainly: Human Phosphodiesterase B2 Alpha Screen Assay. Particulars: cAMP substrate, Alpha Screen cAMP kit, 60 minutes at room temperature. The assay is classed as biochemical. The essentials:
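Recombinant human PDE4B2 preincubated 15 min at RT with compound in 50 mM Tris pH 7.5, 8.3 mM MgCl2, 1.7 mM EGTA, 0.01% Brij35, then reacted with cAMP for 60 min at RT. Stopped with EDTA; AlphaScreen beads with biotinylated cAMP incubated 5 h in the dark before reading. IC50 from curve fitting.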
The IC50 is the concentration that inhibits the measured activity by half. Turning to `O=C([C@H](O)C1CCCCC1)N1CC[C@@H](n2c(=O)c3cc(F)cnc3n(-c3ccc(F)c(F)c3)c2=O)C1` [Example 81, 3-{(3R)-1-[(2R)-2-cyclohexyl-2-hydroxyacetyl]pyrrolidin-3-yl}-1-(3,4-difluorophenyl)-6-fluoropyrido[2,3-d]pyrimidine-2,4(1H,3H)-dione], the IC50 amounted to 8.1 nM.
Then `O=C(c1cc(CO)ccc1O)N1CC[C@@H](n2c(=O)c3cc(F)cnc3n(-c3ccc(F)c(F)c3)c2=O)C1` [Example 82, 1-(3,4-difluorophenyl)-6-fluoro-3-{(3R)-1-[2-hydroxy-5-(hydroxymethyl)benzoyl]pyrrolidin-3-yl}pyrido[2,3-d]pyrimidine-2,4(1H,3H)-dione], with 71.8 nM; and `O=C(c1n[nH]c2ccccc12)N1CC[C@H](n2c(=O)c3cc(F)cnc3n(-c3ccc(F)c(F)c3)c2=O)C1` [Example 83, 1-(3,4-difluorophenyl)-6-fluoro-3-[(3S)-1-(1H-indazol-3-ylcarbonyl)pyrrolidin-3-yl]pyrido[2,3-d]pyrimidine-2,4(1H,3H)-dione], with 9.2 nM.
For the molecule `O=C([C@H](O)c1ccccc1)N1CC[C@H](n2c(=O)c3cc(F)cnc3n(-c3ccc(F)c(F)c3)c2=O)C1` [Example 84, 1-(3,4-difluorophenyl)-6-fluoro-3-{(3S)-1-[(2R)-2-hydroxy-2-phenylacetyl]pyrrolidin-3-yl}pyrido[2,3-d]pyrimidine-2,4(1H,3H)-dione], the half-maximal inhibitory concentration (IC50) was 57.3 nM.
Turning to `O=C(N[C@H]1CC[C@@H](n2c(=O)c3cc(F)cnc3n(-c3ccc(F)c(F)c3)c2=O)CC1)c1ccc2[nH]ccc2c1` [Example 85, N-{cis-4-[1-(3,4-difluorophenyl)-6-fluoro-2,4-dioxo-1,4-dihydropyrido[2,3-d]pyrimidin-3(2H)-yl]cyclohexyl}-1H-indole-5-carboxamide], the IC50 worked out at 0.996 nM.
Then `O=C(N[C@H]1CC[C@@H](n2c(=O)c3cc(F)cnc3n(-c3ccc(F)c(F)c3)c2=O)CC1)c1cccc([N+](=O)[O-])c1` [Example 86, N-{cis-4-[1-(3,4-difluorophenyl)-6-fluoro-2,4-dioxo-1,4-dihydropyrido[2,3-d]pyrimidin-3(2H)-yl]cyclohexyl}-3-nitrobenzamide], with 4.13 nM; and `O=C(N[C@H]1CC[C@@H](n2c(=O)c3cc(F)cnc3n(-c3ccc(F)c(F)c3)c2=O)CC1)c1cc2ccccc2[nH]1` [Example 87, N-{cis-4-[1-(3,4-difluorophenyl)-6-fluoro-2,4-dioxo-1,4-dihydropyrido[2,3-d]pyrimidin-3(2H)-yl]cyclohexyl}-1H-indole-2-carboxamide], with 0.885 nM; and `O=C(N[C@H]1CC[C@@H](n2c(=O)c3cc(F)cnc3n(-c3ccc(F)c(F)c3)c2=O)CC1)c1ccc2[nH]cnc2c1` [Example 88, N-{cis-4-[1-(3,4-difluorophenyl)-6-fluoro-2,4-dioxo-1,4-dihydropyrido[2,3-d]pyrimidin-3(2H)-yl]cyclohexyl}-1H-benzimidazole-5-carboxamide], with 3.38 nM.
Consider `N#Cc1ccc(C(=O)N[C@H]2CC[C@@H](n3c(=O)c4cc(F)cnc4n(-c4ccc(F)c(F)c4)c3=O)CC2)cc1` [Example 89, 4-cyano-N-{cis-4-[1-(3,4-difluorophenyl)-6-fluoro-2,4-dioxo-1,4-dihydropyrido[2,3-d]pyrimidin-3(2H)-yl]cyclohexyl}benzamide], for which the half-inhibitory concentration (IC50) turned out to be 10.8 nM.
For the molecule `O=C(N[C@H]1CC[C@@H](n2c(=O)c3cc(F)cnc3n(-c3ccc(F)c(F)c3)c2=O)CC1)c1ccc2[nH]nnc2c1` [Example 90, N-{cis-4-[1-(3,4-difluorophenyl)-6-fluoro-2,4-dioxo-1,4-dihydropyrido[2,3-d]pyrimidin-3(2H)-yl]cyclohexyl}-1H-1,2,3-benzotriazole-5-carboxamide], the IC50 stood at 6.11 nM.
The same measure for `O=C(N[C@H]1CC[C@@H](n2c(=O)c3cc(F)cnc3n(-c3ccc(F)c(F)c3)c2=O)CC1)c1ccc2ncsc2c1` [Example 91, N-{cis-4-[1-(3,4-difluorophenyl)-6-fluoro-2,4-dioxo-1,4-dihydropyrido[2,3-d]pyrimidin-3(2H)-yl]cyclohexyl}-1,3-benzothiazole-6-carboxamide]: 2.09 nM; for `CC1=C(C(=O)N[C@H]2CC[C@@H](n3c(=O)c4cc(F)cnc4n(-c4ccc(F)c(F)c4)c3=O)CC2)SC2=NCCCN21` [Example 92, N-{cis-4-[1-(3,4-difluorophenyl)-6-fluoro-2,4-dioxo-1,4-dihydropyrido[2,3-d]pyrimidin-3(2H)-yl]cyclohexyl}-3-methyl-6,7-dihydro-5H-[1,3]thiazolo[3,2-a]pyrimidine-2-carboxamide]: 7.83 nM.
Take `O=C(N[C@H]1CC[C@@H](n2c(=O)c3cc(F)cnc3n(-c3ccc(F)c(F)c3)c2=O)CC1)c1csnn1` [Example 93, N-{cis-4-[1-(3,4-difluorophenyl)-6-fluoro-2,4-dioxo-1,4-dihydropyrido[2,3-d]pyrimidin-3(2H)-yl]cyclohexyl}-1,2,3-thiadiazole-4-carboxamide]: the half-maximal inhibitory concentration (IC50) came to 11.7 nM.
Take `O=C(N[C@H]1CC[C@@H](n2c(=O)c3cc(F)cnc3n(-c3ccc(F)c(F)c3)c2=O)CC1)c1cn[nH]c1` [Example 94, N-{cis-4-[1-(3,4-difluorophenyl)-6-fluoro-2,4-dioxo-1,4-dihydropyrido[2,3-d]pyrimidin-3(2H)-yl]cyclohexyl}-1H-pyrazole-4-carboxamide]: the IC50 amounted to 5.31 nM.
Turning to `O=C(N[C@H]1CC[C@@H](n2c(=O)c3cc(F)cnc3n(-c3ccc(F)c(F)c3)c2=O)CC1)c1ccsc1` [Example 95, N-{cis-4-[1-(3,4-difluorophenyl)-6-fluoro-2,4-dioxo-1,4-dihydropyrido[2,3-d]pyrimidin-3(2H)-yl]cyclohexyl}thiophene-3-carboxamide], the IC50 was determined as 3.39 nM.
The same measure for `O=C(N[C@H]1CC[C@@H](n2c(=O)c3cc(F)cnc3n(-c3ccc(F)c(F)c3)c2=O)CC1)c1cc[nH]c1` [Example 96, N-{cis-4-[1-(3,4-difluorophenyl)-6-fluoro-2,4-dioxo-1,4-dihydropyrido[2,3-d]pyrimidin-3(2H)-yl]cyclohexyl}-1H-pyrrole-3-carboxamide]: 6.68 nM.
With `Cn1cnc(C(=O)N[C@H]2CC[C@@H](n3c(=O)c4cc(F)cnc4n(-c4ccc(F)c(F)c4)c3=O)CC2)c1` [Example 97, N-{cis-4-[1-(3,4-difluorophenyl)-6-fluoro-2,4-dioxo-1,4-dihydropyrido[2,3-d]pyrimidin-3(2H)-yl]cyclohexyl}-1-methyl-1H-imidazole-4-carboxamide], the IC50 came to 2.18 nM.
For the molecule `O=C(N[C@H]1CC[C@@H](n2c(=O)c3cc(F)cnc3n(-c3ccc(F)c(F)c3)c2=O)CC1)c1cc[nH]n1` [Example 98, N-{cis-4-[1-(3,4-difluorophenyl)-6-fluoro-2,4-dioxo-1,4-dihydropyrido[2,3-d]pyrimidin-3(2H)-yl]cyclohexyl}-1H-pyrazole-3-carboxamide], the IC50 is 50.1 nM.
Then `O=C(CCN1CCOCC1)N[C@H]1CC[C@@H](n2c(=O)c3cc(F)cnc3n(-c3ccc(F)c(F)c3)c2=O)CC1` [Example 100, N-{cis-4-[1-(3,4-difluorophenyl)-6-fluoro-2,4-dioxo-1,4-dihydropyrido[2,3-d]pyrimidin-3(2H)-yl]cyclohexyl}-3-morpholin-4-ylpropanamide], with 2.12 nM; and `C=Cc1ccc(C(=O)N[C@H]2CC[C@@H](n3c(=O)c4cc(F)cnc4n(-c4ccc(F)c(F)c4)c3=O)CC2)cc1` [Example 101, N-{cis-4-[1-(3,4-difluorophenyl)-6-fluoro-2,4-dioxo-1,4-dihydropyrido[2,3-d]pyrimidin-3(2H)-yl]cyclohexyl}-4-vinylbenzamide], with 2.05 nM.
Then `C#Cc1ccc(C(=O)N[C@H]2CC[C@@H](n3c(=O)c4cc(F)cnc4n(-c4ccc(F)c(F)c4)c3=O)CC2)cc1` [Example 102, N-{cis-4-[1-(3,4-difluorophenyl)-6-fluoro-2,4-dioxo-1,4-dihydropyrido[2,3-d]pyrimidin-3(2H)-yl]cyclohexyl}-4-ethynylbenzamide], with 1 nM; and `O=C(N[C@H]1CC[C@@H](n2c(=O)c3cc(F)cnc3n(-c3ccc(F)c(F)c3)c2=O)CC1)c1cc2cccnc2[nH]1` [Example 103, N-{cis-4-[1-(3,4-difluorophenyl)-6-fluoro-2,4-dioxo-1,4-dihydropyrido[2,3-d]pyrimidin-3(2H)-yl]cyclohexyl}-1H-pyrrolo[2,3-b]pyridine-2-carboxamide], with 0.741 nM; and `O=C(N[C@H]1CC[C@@H](n2c(=O)c3cc(F)cnc3n(-c3ccc(F)c(F)c3)c2=O)CC1)c1nc2ccccc2s1` [Example 104, N-{cis-4-[1-(3,4-difluorophenyl)-6-fluoro-2,4-dioxo-1,4-dihydropyrido[2,3-d]pyrimidin-3(2H)-yl]cyclohexyl}-1,3-benzothiazole-2-carboxamide], with 2.09 nM.
Turning to `O=C(N[C@H]1CC[C@@H](n2c(=O)c3cc(F)cnc3n(-c3ccc(F)c(F)c3)c2=O)CC1)c1cc2cccnc2s1` [Example 105, N-{cis-4-[1-(3,4-difluorophenyl)-6-fluoro-2,4-dioxo-1,4-dihydropyrido[2,3-d]pyrimidin-3(2H)-yl]cyclohexyl}thieno[2,3-b]pyridine-2-carboxamide], the IC50 came out at 6.03 nM.
Take `O=C(N[C@H]1CC[C@@H](n2c(=O)c3cc(F)cnc3n(-c3ccc(F)c(F)c3)c2=O)CC1)c1cc2nccnc2s1` [Example 106, N-{cis-4-[1-(3,4-difluorophenyl)-6-fluoro-2,4-dioxo-1,4-dihydropyrido[2,3-d]pyrimidin-3(2H)-yl]cyclohexyl}thieno[2,3-b]pyrazine-6-carboxamide]: the half-maximal inhibitory concentration (IC50) turned out to be 3.89 nM.
In the case of `O=C(N[C@H]1CC[C@@H](n2c(=O)c3cc(F)cnc3n(-c3ccc(F)c(F)c3)c2=O)CC1)c1nc2ncccn2n1` [Example 107, N-{cis-4-[1-(3,4-difluorophenyl)-6-fluoro-2,4-dioxo-1,4-dihydropyrido[2,3-d]pyrimidin-3(2H)-yl]cyclohexyl}[1,2,4]triazolo[1,5-a]pyrimidine-2-carboxamide], the IC50 was 30.1 nM.
